Measured values published in patent publication US7138361B2, “Herbicidal heterocycles” (E. I. du Pont de Nemours and Company, priority 2000, dated 2006).

Columns and labels:
Assay type in all cases: in vivo
[1] = system: barnyardgrass (Echinochloa crus-galli); test: Test C flooded paddy test; conditions: for Barnyardgrass plant response rating: Flooded Paddy, scale 0 to 100, 0 no effect, 100 complete control; for Plant response rating, Barnyardgrass: flooded paddy test, scale 0 to 100 (0 no effect, 100 complete control)
Summary of the method: (§1)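 Greenhouse-maintained for 12 to 14 days after treatment, the paddy plants (2-leaf stage at application) were scored visually against controls. A score of 0 denotes no effect and a score of 100 denotes complete control.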

[2] = system: smallflower flatsedge (Cyperus difformis); test: Test C flooded paddy test; conditions: for Flatsedge plant response rating: Flooded Paddy, scale 0 to 100, 0 no effect, 100 complete control; for Plant response rating, Flatsedge: flooded paddy test, scale 0 to 100 (0 no effect, 100 complete control)
Summary of the method: as §1

[3] = system: rice (Oryza saliva); test: Test C flooded paddy test; conditions: for Rice plant response rating: Flooded Paddy, scale 0 to 100, 0 no effect, 100 complete control; for Plant response rating, Rice: flooded paddy test, scale 0 to 100 (0 no effect, 100 complete control)
Summary of the method: as §1

[4] = system: duck salad (Heteranthera limosa); test: Test C flooded paddy test; conditions: for Ducksalad plant response rating: Flooded Paddy, scale 0 to 100, 0 no effect, 100 complete control; for Plant response rating, Ducksalad: flooded paddy test, scale 0 to 100 (0 no effect, 100 complete control)
Summary of the method: as §1

[5] = system: barnyardgrass (Echinochloa crus-galli); test: Test B flooded paddy test; conditions: Rate 1000 g/ha, scale of 0 to 100 where 0 is no effect and 100 is complete control, visually evaluated after 13 to 15 days
Summary of the method: (§2)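 Plants were grown to the 2-leaf stage in flooded paddy conditions before treatment with the formulated test chemicals. After 13 to 15 days in a greenhouse, each species was visually compared with untreated controls and rated from 0 (no effect) to 100 (complete control).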

[6] = system: smallflower flatsedge (Cyperus difformis); test: Test B flooded paddy test; conditions: Rate 1000 g/ha, scale of 0 to 100 where 0 is no effect and 100 is complete control, visually evaluated after 13 to 15 days
Summary of the method: as §2

[7] = system: rice (Oryza saliva); test: Test B flooded paddy test; conditions: Rate 1000 g/ha, scale of 0 to 100 where 0 is no effect and 100 is complete control, visually evaluated after 13 to 15 days
Summary of the method: as §2

[8] = system: duck salad (Heteranthera limosa); test: Test B flooded paddy test; conditions: Rate 1000 g/ha, scale of 0 to 100 where 0 is no effect and 100 is complete control, visually evaluated after 13 to 15 days
Summary of the method: as §2

[9] = system: pigweed (Amaranthus retroflexus); test: Test B postemergence; conditions: 13 to 15 days
Summary of the method: (§3)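 Visual injury scores, 0 = no effect to 100 = complete control, assigned against controls after 13 to 15 days in the greenhouse. Compounds formulated in non-phytotoxic solvent plus surfactant and applied to soil after planting (pre) or onto foliage of 1- to 4-leaf plants (post).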

[10] = system: Surinam grass (Brachiaria decumbens); test: Test B postemergence; conditions: 13 to 15 days
Summary of the method: as §3

[11] = system: crabgrass (Digitaria sanguinalis); test: Test B postemergence; conditions: 13 to 15 days
Summary of the method: as §3

[12] = system: barnyardgrass (Echinochloa crus-galli); test: Test B postemergence; conditions: 13 to 15 days
Summary of the method: as §3

[13] = system: morning glory (Ipomoea hederacea); test: Test B postemergence; conditions: 13 to 15 days
Summary of the method: as §3

[14] = system: wild oat (Avena fatua); test: Test B postemergence; conditions: 13 to 15 days
Summary of the method: as §3

[15] = system: giant foxtail (Setaria faberii); test: Test B postemergence; conditions: 13 to 15 days
Summary of the method: as §3

[16] = system: cocklebur (Xanthium strumarium); test: Test B postemergence; conditions: 13 to 15 days
Summary of the method: as §3

[17] = system: blackgrass (Alopecurus myosuroides); test: Test B postemergence; conditions: 13 to 15 days
Summary of the method: as §3

[18] = system: corn (Zea mays); test: Test B postemergence; conditions: 13 to 15 days
Summary of the method: as §3

[19] = system: velvetleaf (Abutilon theophrasti); test: Test B postemergence; conditions: 13 to 15 days
Summary of the method: as §3

[20] = system: wheat (Triticum aestivum); test: Test B postemergence; conditions: 13 to 15 days
Summary of the method: as §3

[21] = system: lambsquarters (Chenopodium album); test: Test B postemergence; conditions: 13 to 15 days
Summary of the method: as §3

[22] = system: pigweed (Amaranthus retroflexus); test: Test B preemergence; conditions: scale 0 to 100, 0 no effect, 100 complete control
Summary of the method: as §3

[23] = system: Surinam grass (Brachiaria decumbens); test: Test B preemergence; conditions: scale 0 to 100, 0 no effect, 100 complete control
Summary of the method: as §3

[24] = system: crabgrass (Digitaria sanguinalis); test: Test B preemergence; conditions: scale 0 to 100, 0 no effect, 100 complete control
Summary of the method: as §3

[25] = system: barnyardgrass (Echinochloa crus-galli); test: Test B preemergence; conditions: scale 0 to 100, 0 no effect, 100 complete control
Summary of the method: as §3

[26] = system: morning glory (Ipomoea hederacea); test: Test B preemergence; conditions: scale 0 to 100, 0 no effect, 100 complete control
Summary of the method: as §3

[27] = system: giant foxtail (Setaria faberii); test: Test B preemergence; conditions: scale 0 to 100, 0 no effect, 100 complete control
Summary of the method: as §3

[28] = system: cocklebur (Xanthium strumarium); test: Test B preemergence; conditions: scale 0 to 100, 0 no effect, 100 complete control
Summary of the method: as §3

[29] = system: corn (Zea mays); test: Test B preemergence; conditions: scale 0 to 100, 0 no effect, 100 complete control
Summary of the method: as §3

[30] = system: rice (Oryza saliva); test: Test B preemergence; conditions: scale 0 to 100, 0 no effect, 100 complete control
Summary of the method: as §3

[31] = system: velvetleaf (Abutilon theophrasti); test: Test B preemergence; conditions: scale 0 to 100, 0 no effect, 100 complete control
Summary of the method: as §3

[32] = system: lambsquarters (Chenopodium album); test: Test B preemergence; conditions: scale 0 to 100, 0 no effect, 100 complete control
Summary of the method: as §3

[33] = Rate 125 g/ha, scale 0 (no effect) to 100 (complete control)
[34] = Rate 500 g/ha, scale 0 to 100, 0 is no effect, 100 is complete control

CC(C)c1ccn(C2SCN(c3cccc(C(F)(F)F)c3)C2=O)n1 (centres unmarked) [Compound 23]
Barnyardgrass plant response rating ([1]; Rate 250 g/ha): 100
Barnyardgrass plant response rating ([1]; Rate 500 g/ha): 100
Plant response rating, Barnyardgrass ([1]; Rate 62 g/ha): 80
Plant response rating, Barnyardgrass ([1]; Rate 125 g/ha): 80
Flatsedge plant response rating ([2]; Rate 250 g/ha): 100
Flatsedge plant response rating ([2]; Rate 500 g/ha): 100
Plant response rating, Flatsedge ([2]; Rate 62 g/ha): 100
Plant response rating, Flatsedge ([2]; Rate 125 g/ha): 100
Rice plant response rating ([3]; Rate 250 g/ha): 70
Rice plant response rating ([3]; Rate 500 g/ha): 100
Plant response rating, Rice ([3]; Rate 62 g/ha): 20
Plant response rating, Rice ([3]; Rate 125 g/ha): 20
Ducksalad plant response rating ([4]; Rate 250 g/ha): 100
Ducksalad plant response rating ([4]; Rate 500 g/ha): 100
Plant response rating, Ducksalad ([4]; Rate 62 g/ha): 50
Plant response rating, Ducksalad ([4]; Rate 125 g/ha): 80
Plant response rating, Barnyardgrass [5]: 0
Plant response rating, Flatsedge [6]: 0
Plant response rating, Rice [7]: 0
Plant response rating, Ducksalad [8]: 100
Plant response rating, Pigweed [9, 33]: 70
Plant response rating, Pigweed [9, 34]: 100
Plant response rating, Surinam grass [10, 33]: 20
Plant response rating, Surinam grass [10, 34]: 20
Plant response rating, Crabgrass [11, 33]: 20
Plant response rating, Crabgrass [11, 34]: 40
Plant response rating, Barnyardgrass [12, 33]: 20
Plant response rating, Barnyardgrass [12, 34]: 90
Plant response rating, Morningglory [13, 33]: 20
Plant response rating, Morningglory [13, 34]: 80
Plant response rating, Wild Oat [14, 33]: 0
Plant response rating, Wild Oat [14, 34]: 0
Plant response rating, Foxtail, Giant [15, 33]: 20
Plant response rating, Foxtail, Giant [15, 34]: 80
Plant response rating, Cocklebur [16, 33]: 40
Plant response rating, Cocklebur [16, 34]: 80
Plant response rating, Blackgrass [17, 33]: 0
Plant response rating, Blackgrass [17, 34]: 20
Plant response rating, Corn [18, 33]: 20
Plant response rating, Corn [18, 34]: 50
Plant response rating, Velvetleaf [19, 33]: 20
Plant response rating, Velvetleaf [19, 34]: 30
Plant response rating, Wheat [20, 33]: 0
Plant response rating, Wheat [20, 34]: 0
Plant response rating, Lambsquarters [21, 33]: 80
Plant response rating, Lambsquarters [21, 34]: 100
Plant response rating, Pigweed ([22]; Preemergence, Rate 500 g/ha): 100
Plant response rating, Pigweed ([22]; preemergence, Rate 125 g/ha): 100
Plant response rating, Surinam grass ([23]; Preemergence, Rate 500 g/ha): 20
Plant response rating, Surinam grass ([23]; preemergence, Rate 125 g/ha): 0
Plant response rating, Crabgrass ([24]; Preemergence, Rate 500 g/ha): 100
Plant response rating, Crabgrass ([24]; preemergence, Rate 125 g/ha): 70
Plant response rating, Barnyardgrass ([25]; Preemergence, Rate 500 g/ha): 100
Plant response rating, Barnyardgrass ([25]; preemergence, Rate 125 g/ha): 0
Plant response rating, Morningglory ([26]; Preemergence, Rate 500 g/ha): 60
Plant response rating, Morningglory ([26]; preemergence, Rate 125 g/ha): 0
Plant response rating, Foxtail, Giant ([27]; Preemergence, Rate 500 g/ha): 50
Plant response rating, Foxtail, Giant ([27]; preemergence, Rate 125 g/ha): 50
Plant response rating, Cocklebur ([28]; Preemergence, Rate 500 g/ha): 20
Plant response rating, Cocklebur ([28]; preemergence, Rate 125 g/ha): 0
Plant response rating, Corn ([29]; Preemergence, Rate 500 g/ha): 0
Plant response rating, Corn ([29]; preemergence, Rate 125 g/ha): 0
Plant response rating, Rice ([30]; Preemergence, Rate 500 g/ha): 30
Plant response rating, Rice ([30]; preemergence, Rate 125 g/ha): 0
Plant response rating, Velvetleaf ([31]; Preemergence, Rate 500 g/ha): 0
Plant response rating, Velvetleaf ([31]; preemergence, Rate 125 g/ha): 0
Plant response rating, Lambsquarters ([32]; Preemergence, Rate 500 g/ha): 100
Plant response rating, Lambsquarters ([32]; preemergence, Rate 125 g/ha): 100
